This note sets out measurements from article PMC4403932 (Journal of Medicinal Chemistry, 2015).

Assay type in all cases: binding
The target in one assay is T1, BRD4(1) (Homo sapiens, UniProt O60885).
T1 construct: made in house
Put plainly: Protein stability (thermal) shift assay, BRD4(1). The conditions noted are these: compound 10 μM, protein 2 μM; average of triplicate; read-out: ΔTm Shift, BRD4(1). As for the experimental part:
(§1) Thermal melting experiments were carried out using an Mx3005p real time PCR machine (Stratagene). Proteins were buffered in 10 mM HEPES, pH 7.5, 500 mM NaCl and assayed in a 96-well plate at a final concentration of 2 μM in 20 μL volume. Compounds were added at a final concentration of 10 or 100 μM. SYPRO Orange (Molecular Probes) was added as a fluorescence probe at a dilution of 1 in 1000. Excitation and emission filters for the SYPRO-Orange dye were set to 465 and 590 nm, respectively. The temperature was raised with a step of 3 °C per minute from 25 to 96 °C, and fluorescence readings were taken at each interval. The temperature dependence of the fluorescence during the protein denaturation process was approximated by the equation [drawing 1] where ΔuG is the difference in unfolding free energy between the folded and unfolded state, R is the gas constant, and yF and yU are the fluorescence intensity of the probe in the presence of completely folded and unfolded protein, respectively.[65] The baselines of the denatured and native states were approximated by a linear fit. The observed temperature shifts, ΔTm^obs, were recorded as the difference between the transition midpoints of sample and reference wells containing protein without ligand in the same plate and determined by nonlinear least-squares fit. Temperature shifts (ΔTm^obs) for three independent measurements per proteins/compound are summarized in Supporting Information Table S1.

A further assay concerns the target T2, BRD2(1) (Homo sapiens, UniProt P25440).
T2 construct: Fragments were tested in a thermal shift assay against bromodomains of the BET subfamily; made in house
The experiment in a line: Protein stability (thermal) shift assay, BRD2(1). The conditions noted are these: compound 10 μM, protein 2 μM; average of triplicate. As to the method:
as §1

The next assay deals with T3, PCAF (Homo sapiens, UniProt Q92831).
T3 construct: representative BRDs from other structural subfamilies (family I, PCAF); made in house
T3 sequence (Q92831 723-827 limits assumed): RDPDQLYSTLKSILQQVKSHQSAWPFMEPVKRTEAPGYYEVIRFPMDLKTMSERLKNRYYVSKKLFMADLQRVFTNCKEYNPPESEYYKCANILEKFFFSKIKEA
The experiment in a line: Protein stability (thermal) shift assay, PCAF. The conditions noted are these: compound 10 μM, protein 2 μM; average of triplicate. As for the experimental part: as §1

For another assay, the target named is T4, CREBBP (Homo sapiens, UniProt Q92793).
T4 construct: small thermal shits (1.0–1.3 °C) for the bromodomain of CREBBP; made in house
T4 sequence (Q92793 1085-1192 limits assumed): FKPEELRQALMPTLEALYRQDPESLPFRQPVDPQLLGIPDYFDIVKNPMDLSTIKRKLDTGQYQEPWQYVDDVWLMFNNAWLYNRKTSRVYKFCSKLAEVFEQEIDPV
The experiment in a line: Protein stability (thermal) shift assay, CREBBP. The conditions noted are these: compound 10 μM, protein 2 μM; average of triplicate; read-out: ΔTm Shift, CREBBP. As for the experimental part:
as §1

In another assay the target is T5, BRDT(2) (Homo sapiens, UniProt Q58F21).
T5 construct: made in house
Put plainly: Protein stability (thermal) shift assay, BRDT(2). The conditions noted are these: compound 10 μM, protein 2 μM; average of triplicate; read-out: ΔTm Shift, BRDT(2). As to the method:
as §1

The next assay concerns the target T6, PB1(5) (Homo sapiens, UniProt Q86U86).
T6 construct: made in house
Put plainly: Protein stability (thermal) shift assay, PB1(5). The conditions noted are these: compound 10 μM, protein 2 μM; average of triplicate. As to the method:
as §1

In the next assay the target is T7, BRD2(2) (Homo sapiens, UniProt P25440).
T7 construct: made in house
T7 sequence (P25440 344-453 limits assumed): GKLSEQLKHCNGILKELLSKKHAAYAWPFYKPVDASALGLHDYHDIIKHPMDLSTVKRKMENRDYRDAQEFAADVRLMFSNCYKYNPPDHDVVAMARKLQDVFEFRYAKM
The experiment in a line: Protein stability (thermal) shift assay, BRD2(2). The conditions noted are these: compound 10 μM, protein 2 μM; average of triplicate. As to the method: as §1

A further assay has as its target T8, BRD3(1) (Homo sapiens, UniProt Q15059).
T8 construct: Fragments were tested in a thermal shift assay against bromodomains of the BET subfamily; made in house
The experiment in a line: Protein stability (thermal) shift assay, BRD3(1). The conditions noted are these: compound 10 μM, protein 2 μM; average of triplicate. As to the method:
as §1

A further assay concerns the target T9, BRD3(2) (Homo sapiens, UniProt Q15059).
T9 construct: made in house
The experiment in a line: Protein stability (thermal) shift assay, BRD3(2). The conditions noted are these: compound 10 μM, protein 2 μM; average of triplicate. As to the method: as §1

The next assay has as its target T10, BRD4(2) (Homo sapiens, UniProt O60885).
T10 construct: made in house
The experiment in a line: Protein stability (thermal) shift assay, BRD4(2). The conditions noted are these: compound 10 μM, protein 2 μM; average of triplicate. As for the experimental part: as §1

For a further assay, the target named is T11, BRDT(1) (Homo sapiens, UniProt Q58F21).
T11 construct: made in house
Put plainly: Protein stability (thermal) shift assay, BRDT(1). The conditions noted are these: compound 10 μM, protein 2 μM; average of triplicate. As for the experimental part:
as §1

The target of another assay is T12, BAZ2B (Homo sapiens, UniProt Q9UIF8).
T12 construct: representative BRDs from other structural subfamilies (family I, PCAF); family III, CREBBP; family IV, BRD9; family V, BAZ2B; made in house
T12 sequence (Q9UIF8 2060-2164 limits assumed): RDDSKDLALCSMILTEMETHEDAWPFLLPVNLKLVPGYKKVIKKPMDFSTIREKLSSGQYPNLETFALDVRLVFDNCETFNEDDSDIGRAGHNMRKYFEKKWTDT
Put plainly: Protein stability (thermal) shift assay, BAZ2B. The conditions noted are these: compound 10 μM, protein 2 μM; average of triplicate; read-out: ΔTm Shift, BAZ2BA. As to the method:
as §1

The target in the next assay is T13, BRD9 (Homo sapiens, UniProt Q9H8M2).
T13 construct: made in house
T13 sequence (Q9H8M2 136-240 limits assumed): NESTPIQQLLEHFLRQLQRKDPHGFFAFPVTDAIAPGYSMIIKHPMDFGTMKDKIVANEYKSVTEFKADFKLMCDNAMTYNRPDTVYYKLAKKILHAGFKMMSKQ
Put plainly: Protein stability (thermal) shift assay, BRD9. The conditions noted are these: compound 10 μM, protein 2 μM; average of triplicate; read-out: ΔTm Shift, BRD9. As to the method:
as §1

T2 sequence (P25440 74-180 limits assumed): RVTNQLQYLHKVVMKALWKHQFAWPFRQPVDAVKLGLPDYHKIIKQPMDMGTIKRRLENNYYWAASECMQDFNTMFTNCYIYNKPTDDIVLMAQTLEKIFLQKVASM
T8 sequence (Q15059 34-140 limits assumed): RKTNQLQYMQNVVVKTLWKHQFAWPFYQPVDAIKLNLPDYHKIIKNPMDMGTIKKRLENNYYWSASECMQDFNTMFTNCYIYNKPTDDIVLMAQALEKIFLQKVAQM
T9 sequence (Q15059 306-415 limits assumed): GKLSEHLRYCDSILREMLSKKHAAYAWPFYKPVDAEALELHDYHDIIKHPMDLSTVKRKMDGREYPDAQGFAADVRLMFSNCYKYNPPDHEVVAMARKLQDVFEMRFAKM
T6 sequence (Q86U86 653-763 limits assumed): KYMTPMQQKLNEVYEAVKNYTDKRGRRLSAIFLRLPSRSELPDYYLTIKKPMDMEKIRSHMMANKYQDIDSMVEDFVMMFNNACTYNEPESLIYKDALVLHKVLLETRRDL

Regarding `Clc1nc(Cl)c2nc[nH]c2n1` [Compound 1, 2,6-dichloro-9H-purine], the ΔTm at 10 µM on BRD4(1) was 1.6 °C; at BRD2(1) it was 0.361 °C; on PCAF, -0.8 °C; at CREBBP, 1.6 °C; at BRDT(2), -0.234 °C; at PB1(5) it was 1.4 °C. In addition, the ΔTm at 10 µM at BRD2(2) is -0.374 °C; on BRD3(1), 0.7 °C; on BRD3(2), -0.159 °C; at BRD4(2), 0.5 °C; at BRDT(1) it was -0.8 °C; on BAZ2B it was -0.1 °C.

As to `COc1ccc(-c2nc(N)nc3[nH]cnc23)cc1` [Compound 3b, 2-Amino-6-(4-methoxyphenyl)-9H-purine], the ΔTm at 10 µM on BRD9 is 0 °C; at BRD4(1), 0.223 °C; on BRD2(1), -0.253 °C; at PCAF, 0.0867 °C; on CREBBP it was 0.663 °C; at BRDT(2), -0.167 °C. For the same molecule, the ΔTm at 10 µM is -0.08 °C at PB1(5); 0.337 °C on BRD2(2); -0.06 °C on BRD3(1); 0.4 °C at BRD3(2); 0.0133 °C at BRD4(2); -0.133 °C on BRDT(1). Besides, on BAZ2B, the ΔTm at 10 µM is 0.00333 °C.

As to `Nc1nc(-c2ccc(Oc3ccccc3)cc2)c2nc[nH]c2n1` [Compound 3d, 2-Amino-6-(4-phenoxyphenyl)-9H-purine], the ΔTm at 10 µM is 0.847 °C at BRD9; 0.533 °C at BRD4(1); -0.0833 °C at BRD2(1); 0.2 °C at PCAF; 0.6 °C at CREBBP; 0.3 °C at BRDT(2). Moreover, the ΔTm at 10 µM is 0.0567 °C on PB1(5); 0.5 °C at BRD2(2); -0.127 °C on BRD3(1); 0.7 °C on BRD3(2); 0.5 °C at BRD4(2); 0.253 °C at BRDT(1). For the same molecule, at BAZ2B, the ΔTm at 10 µM turned out to be 0.273 °C.

Turning to `Nc1nc(-c2ccc(COc3cccc(C(F)(F)F)c3)cc2)c2nc[nH]c2n1` [Compound 3g, 2-Amino-6-(4-(3′-(trifluoromethyl)phenoxymethyl)phenyl)-9H-purine], the ΔTm at 10 µM was -0.9 °C at BRD9; -0.18 °C on BRD4(1); -0.5 °C on BRD2(1); 0.1 °C on PCAF; 0.363 °C at CREBBP; 0.271 °C on BRDT(2). The ΔTm at 10 µM was 0.339 °C on PB1(5); 0.459 °C on BRD2(2); -0.125 °C on BRD3(1); 0.215 °C on BRD3(2); -7.9 °C at BRD4(2); -0.322 °C at BRDT(1). Also, the ΔTm at 10 µM on BAZ2B is -1 °C.

For the molecule `COCCc1ccc(OCc2ccc(-c3nc(N)nc4[nH]cnc34)cc2)cc1` [Compound 3h, 2-Amino-6-(4-((4′-(2-methoxyethyl)phenoxy)methyl)phenyl)-9H-purine], the ΔTm at 10 µM was -0.532 °C at BRD9; 0.6 °C on BRD4(1); 0.354 °C on BRD2(1); -0.2 °C at PCAF; 1 °C on CREBBP; 0.7 °C on BRDT(2). Besides, the ΔTm at 10 µM was 0.5 °C at PB1(5); 1.2 °C on BRD2(2); 0.5 °C on BRD3(1); 2 °C at BRD3(2); -2.8 °C at BRD4(2); 0.528 °C on BRDT(1). Also, on BAZ2B, the ΔTm at 10 µM was -0.127 °C.

As for `Nc1nc(-c2cccc(OCc3ccc(Cl)cc3)c2)c2nc[nH]c2n1` [Compound 4d, 2-Amino-6-(3-(4′-chlorobenzyloxy)phenyl)-9H-purine], the ΔTm at 10 µM was 1.5 °C at BRD4(1); 0.643 °C at BRD2(1); 0.7 °C on PCAF; 1.5 °C at CREBBP; 1.2 °C on BRDT(2); 0.553 °C at PB1(5). Further, the ΔTm at 10 µM on BRD2(2) came out at 1.4 °C; on BRD3(1), 0.7 °C; on BRD3(2) it was 1.2 °C; on BRD4(2), 1 °C; at BRDT(1), 0.7 °C; at BAZ2B, 0.653 °C.
